Data reported in publication PMC5078040 (Oncotarget, 2016).

Assays:
PI3Kγ = PI3Kγ (Mus musculus, UniProt Q9JHG7); assay: cell-based
CLL patient primary cell = assay: Anti-proliferative efficacy against patient primary cells; type: cell-based; conditions: Homo sapiens
Description: Peripheral blood mononuclear cells (PBMCs) from individuals with CLL were isolated by density centrifugation through Ficoll and frozen for each subject. Those subjects with low white counts whose CLL cell purity was expected to be < 85% underwent B cell isolation using RosetteSep. The protocol was approved by the Dana-Farber Harvard Cancer Center Institutional Review Board and all subjects signed written informed consent prior to participation.
(§1) Cells were grown in 96-well culture plates (3000-4000/well). […] Cell proliferation was determined after treatment with compounds for 72 hours. Cell viability was measured using the CellTiter–Glo Assay Kit (Promega, USA), according to the manufacturer's instructions, and luminescence was measured in a multi-label reader (Envision, PerkinElmer, USA). Data were normalized to control groups (DMSO) and represented by the mean of three independent measurements with standard error <20%. GI50 values were calculated using Prism 5.0 (GraphPad Software, San Diego, CA).

HL-60 = assay: Anti-proliferative assay; type: cell-based; conditions: Homo sapiens; HL-60, AML-M2; 72 hours, CellTiter-Glo
Description: as §1

NB4 = assay: Anti-proliferative assay; type: cell-based; conditions: Homo sapiens; NB4, AML-3; 72 hours, CellTiter-Glo
Description: as §1

MOLM-14 = assay: Anti-proliferative assay; type: cell-based; conditions: Homo sapiens; MOLM-14, AML-M5; 72 hours, CellTiter-Glo
Description: as §1

HT = assay: Anti-proliferative assay; type: cell-based; conditions: Homo sapiens, B-cell lymphoma, 72 hours, CellTiter-Glo
Description: as §1

AMO-1 = assay: Anti-proliferative assay; type: cell-based; conditions: Homo sapiens, AMO1; AMO-1, MM; 72 hours, CellTiter-Glo
Description: as §1

MV4-11 = assay: Anti-proliferative assay; type: cell-based; conditions: Homo sapiens; MV4-11, AML; 72 hours, CellTiter-Glo
Description: as §1

OCI-AML-3 = assay: Anti-proliferative assay; type: cell-based; conditions: Homo sapiens; OCI-AML-3, AML-M4; 72 hours, CellTiter-Glo
Description: as §1

Ramos(new) = assay: Anti-proliferative assay; type: cell-based; conditions: Homo sapiens, Burrkit lymphoma, 72 hours, CellTiter-Glo
Description: as §1

MEC-2 = assay: Anti-proliferative assay; type: cell-based; conditions: Homo sapiens, MEC2; MEC-2, CLL; 72 hours, CellTiter-Glo
Description: as §1

SKM-1 = assay: Anti-proliferative assay; type: cell-based; conditions: Homo sapiens; SKM-1, AML-M5; 72 hours, CellTiter-Glo
Description: as §1

NALM-6 = assay: Anti-proliferative assay; type: cell-based; conditions: Homo sapiens, 72 hours, CellTiter-Glo
Description: as §1

Hs 505T = assay: Anti-proliferative assay; type: cell-based; conditions: Homo sapiens, CLL, 72 hours, CellTiter-Glo
Description: as §1

PF382 = assay: Anti-proliferative assay; type: cell-based; conditions: Homo sapiens, PF-382; PF382, ALL; 72 hours, CellTiter-Glo
Description: as §1

Namalwa = assay: Anti-proliferative assay; type: cell-based; conditions: Homo sapiens, Burrkit lymphoma, 72 hours, CellTiter-Glo
Description: as §1

MEC-1 = assay: Anti-proliferative assay; type: cell-based; conditions: Homo sapiens, MEC1; MEC-1, CLL; 72 hours, CellTiter-Glo
Description: as §1

JVM-2 = assay: Anti-proliferative assay; type: cell-based; conditions: Homo sapiens; JVM-2, Mantle cell lymphoma; 72 hours, CellTiter-Glo
Description: as §1

CMK = assay: Anti-proliferative assay; type: cell-based; conditions: Homo sapiens, AML, 72 hours, CellTiter-Glo
Description: as §1

HEL = assay: Anti-proliferative assay; type: cell-based; conditions: Homo sapiens, AML-M6, 72 hours, CellTiter-Glo
Description: as §1

MOLM-13 = assay: Anti-proliferative assay; type: cell-based; conditions: Homo sapiens; MOLM-13, AML-M5; 72 hours, CellTiter-Glo
Description: as §1

OCI-AML-2 = assay: Anti-proliferative assay; type: cell-based; conditions: Homo sapiens, OCI-AML2; OCI-AML-2, AML-M4; 72 hours, CellTiter-Glo
Description: as §1

NOMO-1 = assay: Anti-proliferative assay; type: cell-based; conditions: Homo sapiens; NOMO-1, AML-M5; 72 hours, CellTiter-Glo
Description: as §1

RPMI8226 = assay: Anti-proliferative assay; type: cell-based; conditions: Homo sapiens, RPMI-8226; RPMI8226, MM; 72 hours, CellTiter-Glo
Description: as §1

U937 = assay: Anti-proliferative assay; type: cell-based; conditions: Homo sapiens, U-937; U937, AML; 72 hours, CellTiter-Glo
Description: as §1

PI3Kα = biological target: T1, PI3Kα (Mus musculus, UniProt P42337); assay: PI3Ks isoform in cell EC50 assay (AKT phosphorylation, Western Blotting); type: cell-based; conditions: NIH-3T3, 20ng/ml PDGF-BB, read-out: cellular EC50 PI3K Alpha
T1 construct: endogenous in cells; host or cells: NIH-3T3

AML patient primary cell = assay: Anti-proliferative efficacy against patient primary cells; type: cell-based; conditions: Homo sapiens
Description: Mononuclear cells were isolated from AML patients. Mononuclear cells were isolated by density gradient centrifugation through Ficoll-Plaque Plus (Amersham Pharmacia Biotech AB, Uppsala, Sweden) at 2000 rpm for 30 minutes, followed by two washes in 1X PBS. Freeze-thawed cells were then cultured in liquid culture (DMEM, supplemented with 20% FBS). All blood and bone marrow samples from AML patients were obtained through written consent under approval of the Dana Farber Cancer Institute Institutional Review Board. The ethics committees approved the consent procedure.
as §1

PI3Kβ = biological target: T2, PI3Kβ (Mus musculus, UniProt Q8BTI9); assay: PI3Ks isoform in cell EC50 assay (AKT phosphorylation, Western Blotting); type: cell-based; conditions: NIH-3T3, 5μM LPA, read-out: cellular EC50 PI3K Beta
T2 construct: endogenous in cells; host or cells: NIH-3T3
T2 sequence (Q8BTI9 whole entry, canonical isoform): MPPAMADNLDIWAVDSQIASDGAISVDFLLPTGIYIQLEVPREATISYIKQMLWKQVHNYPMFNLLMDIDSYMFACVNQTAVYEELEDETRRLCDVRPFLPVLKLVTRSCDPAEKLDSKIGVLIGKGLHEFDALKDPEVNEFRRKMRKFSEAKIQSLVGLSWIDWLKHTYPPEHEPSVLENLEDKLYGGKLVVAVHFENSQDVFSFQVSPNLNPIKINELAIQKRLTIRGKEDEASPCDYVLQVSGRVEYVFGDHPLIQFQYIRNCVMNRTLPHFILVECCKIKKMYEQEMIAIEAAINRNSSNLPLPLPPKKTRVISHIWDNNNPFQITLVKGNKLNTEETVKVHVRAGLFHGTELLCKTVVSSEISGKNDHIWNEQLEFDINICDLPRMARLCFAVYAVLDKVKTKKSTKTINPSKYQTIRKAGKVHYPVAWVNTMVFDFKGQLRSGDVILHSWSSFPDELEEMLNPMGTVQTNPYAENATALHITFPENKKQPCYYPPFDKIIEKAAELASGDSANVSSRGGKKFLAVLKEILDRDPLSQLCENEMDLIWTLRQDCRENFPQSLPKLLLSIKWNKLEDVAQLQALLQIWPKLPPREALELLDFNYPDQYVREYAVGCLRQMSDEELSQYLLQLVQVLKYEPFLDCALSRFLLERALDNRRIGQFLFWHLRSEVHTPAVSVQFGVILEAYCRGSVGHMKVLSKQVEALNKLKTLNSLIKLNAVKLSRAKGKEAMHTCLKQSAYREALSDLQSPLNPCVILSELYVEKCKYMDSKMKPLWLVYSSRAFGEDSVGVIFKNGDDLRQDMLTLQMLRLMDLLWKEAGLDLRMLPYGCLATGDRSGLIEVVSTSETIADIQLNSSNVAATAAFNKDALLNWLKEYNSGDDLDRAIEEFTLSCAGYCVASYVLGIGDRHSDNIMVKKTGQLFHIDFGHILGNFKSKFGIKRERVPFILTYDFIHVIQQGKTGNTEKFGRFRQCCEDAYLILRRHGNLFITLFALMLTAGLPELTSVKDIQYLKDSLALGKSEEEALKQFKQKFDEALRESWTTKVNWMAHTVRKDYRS
T2 sequence (P26450 whole entry partner, canonical isoform): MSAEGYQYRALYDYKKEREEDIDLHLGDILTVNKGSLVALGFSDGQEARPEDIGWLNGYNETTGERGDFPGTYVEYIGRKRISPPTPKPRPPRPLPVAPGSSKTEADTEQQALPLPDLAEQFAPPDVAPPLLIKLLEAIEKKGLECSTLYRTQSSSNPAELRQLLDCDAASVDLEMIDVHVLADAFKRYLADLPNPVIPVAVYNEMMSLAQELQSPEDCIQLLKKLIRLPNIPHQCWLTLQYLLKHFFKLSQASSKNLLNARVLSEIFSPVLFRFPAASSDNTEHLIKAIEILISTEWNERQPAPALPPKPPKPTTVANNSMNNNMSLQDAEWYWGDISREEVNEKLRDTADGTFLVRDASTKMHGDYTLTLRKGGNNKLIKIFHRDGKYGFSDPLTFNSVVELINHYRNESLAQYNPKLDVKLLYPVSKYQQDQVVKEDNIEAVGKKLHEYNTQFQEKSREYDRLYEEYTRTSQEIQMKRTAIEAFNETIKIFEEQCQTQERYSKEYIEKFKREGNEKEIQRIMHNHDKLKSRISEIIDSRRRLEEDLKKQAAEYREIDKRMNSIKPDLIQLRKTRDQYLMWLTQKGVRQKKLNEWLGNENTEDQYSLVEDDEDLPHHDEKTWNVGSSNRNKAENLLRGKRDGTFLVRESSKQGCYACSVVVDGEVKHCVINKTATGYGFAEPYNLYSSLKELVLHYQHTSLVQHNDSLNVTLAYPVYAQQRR

T1 sequence (P42337 whole entry, canonical isoform): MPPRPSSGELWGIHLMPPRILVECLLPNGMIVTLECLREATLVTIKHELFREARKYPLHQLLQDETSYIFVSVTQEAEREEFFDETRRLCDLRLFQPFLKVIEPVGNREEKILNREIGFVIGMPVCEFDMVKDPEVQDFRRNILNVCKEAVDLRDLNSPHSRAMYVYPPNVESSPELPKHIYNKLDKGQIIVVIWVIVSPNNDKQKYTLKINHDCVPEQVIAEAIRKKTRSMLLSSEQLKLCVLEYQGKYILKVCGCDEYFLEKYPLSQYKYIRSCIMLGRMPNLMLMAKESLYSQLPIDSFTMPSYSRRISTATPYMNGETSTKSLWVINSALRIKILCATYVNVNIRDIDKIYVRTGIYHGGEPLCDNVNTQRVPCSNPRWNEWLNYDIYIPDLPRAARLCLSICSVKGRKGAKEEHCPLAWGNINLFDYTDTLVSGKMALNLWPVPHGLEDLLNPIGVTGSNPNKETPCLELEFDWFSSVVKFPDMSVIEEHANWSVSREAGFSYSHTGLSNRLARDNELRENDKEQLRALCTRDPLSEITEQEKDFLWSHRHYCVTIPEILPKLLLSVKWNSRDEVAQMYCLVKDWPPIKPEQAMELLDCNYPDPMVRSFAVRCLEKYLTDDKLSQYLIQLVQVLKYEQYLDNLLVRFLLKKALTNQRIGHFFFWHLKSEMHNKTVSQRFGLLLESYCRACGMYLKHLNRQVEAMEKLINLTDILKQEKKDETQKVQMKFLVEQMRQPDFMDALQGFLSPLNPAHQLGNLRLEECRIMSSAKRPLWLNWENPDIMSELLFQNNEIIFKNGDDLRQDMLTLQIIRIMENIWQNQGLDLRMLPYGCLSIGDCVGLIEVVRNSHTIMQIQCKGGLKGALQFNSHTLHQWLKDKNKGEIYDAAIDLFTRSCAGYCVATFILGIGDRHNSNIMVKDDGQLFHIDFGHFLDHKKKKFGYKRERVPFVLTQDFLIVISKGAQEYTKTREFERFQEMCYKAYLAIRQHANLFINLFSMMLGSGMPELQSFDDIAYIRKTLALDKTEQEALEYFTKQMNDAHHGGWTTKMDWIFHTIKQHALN
T1 sequence (P26450 whole entry partner, canonical isoform): as the sequence (P26450 whole entry partner, canonical isoform) above
Sequence of PI3Kγ (Q9JHG7 whole entry): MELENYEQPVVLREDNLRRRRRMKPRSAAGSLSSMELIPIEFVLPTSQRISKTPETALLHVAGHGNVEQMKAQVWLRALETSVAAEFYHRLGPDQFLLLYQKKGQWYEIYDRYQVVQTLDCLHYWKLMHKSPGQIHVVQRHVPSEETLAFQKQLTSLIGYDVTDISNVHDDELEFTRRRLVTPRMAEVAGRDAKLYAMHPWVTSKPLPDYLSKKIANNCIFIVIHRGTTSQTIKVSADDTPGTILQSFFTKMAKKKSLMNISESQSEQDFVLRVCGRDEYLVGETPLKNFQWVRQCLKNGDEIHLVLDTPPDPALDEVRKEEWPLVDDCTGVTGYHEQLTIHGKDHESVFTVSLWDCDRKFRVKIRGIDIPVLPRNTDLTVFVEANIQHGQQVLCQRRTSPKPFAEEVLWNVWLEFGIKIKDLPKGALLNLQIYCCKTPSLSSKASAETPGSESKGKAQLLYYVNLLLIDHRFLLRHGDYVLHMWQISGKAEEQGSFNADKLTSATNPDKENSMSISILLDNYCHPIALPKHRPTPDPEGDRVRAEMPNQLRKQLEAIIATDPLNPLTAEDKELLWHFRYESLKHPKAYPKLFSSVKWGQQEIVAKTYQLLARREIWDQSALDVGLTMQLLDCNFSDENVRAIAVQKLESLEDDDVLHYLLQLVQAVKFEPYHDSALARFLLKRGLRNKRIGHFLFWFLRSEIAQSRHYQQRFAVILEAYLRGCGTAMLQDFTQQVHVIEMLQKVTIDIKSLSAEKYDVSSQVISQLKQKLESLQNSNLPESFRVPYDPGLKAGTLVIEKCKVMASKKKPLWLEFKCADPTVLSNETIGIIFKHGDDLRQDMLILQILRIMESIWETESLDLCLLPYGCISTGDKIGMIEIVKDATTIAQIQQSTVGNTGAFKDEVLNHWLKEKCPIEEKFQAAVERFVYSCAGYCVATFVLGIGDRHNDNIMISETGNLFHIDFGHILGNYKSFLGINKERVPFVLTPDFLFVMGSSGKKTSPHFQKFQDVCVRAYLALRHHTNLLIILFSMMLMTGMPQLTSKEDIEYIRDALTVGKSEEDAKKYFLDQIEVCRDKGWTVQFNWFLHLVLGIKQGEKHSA

| SMILES | GI50 (HL-60) [nM] | GI50 (NB4) [nM] | GI50 (MOLM-14) [nM] | GI50 (HT) [nM] | GI50 (AMO-1) [nM] | GI50 (MV4-11) [nM] | GI50 (OCI-AML-3) [nM] | GI50 (Ramos(new)) [nM] | GI50 (SKM-1) [nM] | GI50 (NALM-6) [nM] | GI50 (PF382) [nM] | GI50 (Namalwa) [nM] | GI50 (JVM-2) [nM] | GI50 (CMK) [nM] | GI50 (HEL) [nM] | GI50 (MOLM-13) [nM] | GI50 (OCI-AML-2) [nM] | GI50 (NOMO-1) [nM] | GI50 (RPMI8226) [nM] | GI50 (U937) [nM] | also measured |
| --- | --- | --- | --- | --- | --- | --- | --- | --- | --- | --- | --- | --- | --- | --- | --- | --- | --- | --- | --- | --- | --- |
| CC[C@H](Nc1ncnc2[nH]cnc12)c1nc2cccc(F)c2c(=O)n1-c1ccccc1 [CAL-101, Idelalisib] | > 10000 | > 10000 | 7800 | > 10000 | > 10000 | > 10000 | 2400 | > 10000 | > 10000 | > 10000 | > 10000 | > 10000 | > 10000 | > 10000 | > 10000 | > 10000 | > 10000 | > 10000 | > 10000 | > 10000 | EC50 (PI3Kγ): 2320 nM; GI50 (CLL patient primary cell; patient primary cell CLL16): > 10000 nM; GI50 (CLL patient primary cell; patient primary cell CLL18): > 10000 nM; GI50 (CLL patient primary cell; patient primary cell CLL19): > 10000 nM; GI50 (MEC-2): > 10000 nM; GI50 (Hs 505T): > 10000 nM; GI50 (MEC-1): > 10000 nM; EC50 (PI3Kα): > 3000 nM; GI50 (AML patient primary cell; AML1, patient primary cell AML1): > 10000 nM; GI50 (AML patient primary cell; AML3, patient primary cell AML3): > 10000 nM; GI50 (AML patient primary cell; patient primary cell AML2): 1010 nM; GI50 (AML patient primary cell; patient primary cell AML4): > 10000 nM; GI50 (AML patient primary cell; patient primary cell AML5): > 10000 nM; GI50 (AML patient primary cell; patient primary cell AML6): > 10000 nM; EC50 (PI3Kβ): > 3000 nM |
| CS(=O)(=O)N1CCN(Cc2cc3nc(-c4cccc5[nH]ncc45)nc(N4CCOCC4)c3s2)CC1 [GDC-0941] | 160 | 1000 | 300 | 500 | 300 | 1400 | 730 | 2100 | 540 | 390 | 460 | 390 | > 10000 | 300 | > 10000 | 150 | 2000 | 1000 | 2600 | 1600 | EC50 (PI3Kα): 624 nM; EC50 (PI3Kβ): 176 nM |
